# From US20040247525A1, “Brain progenitor cell-based assay, and related methods and compositions” (priority 2003, published 2004)
# “Also recorded” adds a separate entry of the source. Where two headings read alike, the source gives them in different places.
# Tests used:
# 129/SvEv mice = test: Novelty-suppressed feeding test (NSF); assay type: in vivo, mouse
# Method: Haloperidol, an antipsychotic that antagonizes D2 dopamine receptors, was used as a negative control because it is devoid of antidepressant activity in humans. NSF performance was assessed after either 5 or 28 days of oral drug administration.
# [1] = system: 5-HT1A receptor knockout (KO) mice; test: Novelty-suppressed feeding test (NSF) in 5-HT1A knockout mice; assay type: in vivo, mouse
# Method: The Novelty-suppressed feeding test was carried out during a 5-min period as previously described (Santarelli et al., 2001). Briefly, the testing apparatus consisted of a plastic box, 50×50×20 cm. The floor was covered with approximately 2 cm of wooden bedding. Twenty-four hours prior to behavioral testing, all food was removed from the home cage. At the time of testing, a single pellet of food (regular chow) was placed on a white paper platform positioned in the center of the box. An animal was placed in a corner of the maze and a stopwatch was immediately started. The measure of interest (chewing) was scored when the mouse was sitting on its haunches and biting with the use of forepaws. Immediately after this test, mice were transferred to their home cage and the amount of food consumed in 5 min was measured (home cage food consumption). In knockout experiments, mice were genotyped after behavioral testing to remove the possibility of investigator bias. Mice were always tested during the light period.
# Among the 14 known 5-HT receptor subtypes, the 5-HT1A receptor has been most consistently implicated in the modulation of mood and anxiety-related behaviors (Gross et al., 2000; Sargent et al., 2000). To determine whether this receptor is required to mediate the effects of serotonin- and noradrenaline-enhancing ADs, we compared the effects of these drugs in wild type (WT) mice and in mice lacking the 5-HT1A receptor (5-HT1A receptor knockout (KO) mice). WT and KO mice were treated with fluoxetine, imipramine, desipramine, or vehicle for a period of 28 days before being tested in the NSF paradigm.
# [2] = system: BrdU-positive cells in the dentate gyrus; test: BrdU labeling of cell proliferation and neurogenesis in the dentate gyrus; assay type: in vivo, mouse; conditions: for BrdU-labeled cells in the SGZ (cell proliferation): 8-OH-DPAT chronic (28 days, 1 mg/kg/day mini pumps), WT (+/+) mice, vs sham, 1 mg/kg/day; for BrdU-positive cells surviving 28 days after BrdU injection: wild type mice, chronic treatment, sacrificed 28 days after BrdU
# [3] = system: BrdU-positive cells in the dentate gyrus of 5-HT1A receptor KO mice; test: BrdU labeling of cell proliferation in the dentate gyrus of 5-HT1A knockout mice; conditions: for BrdU-labeled cells in the SGZ (cell proliferation): 8-OH-DPAT chronic (28 days, 1 mg/kg/day mini pumps), vs sham, 1 mg/kg/day; for BrdU-positive cells surviving 28 days after BrdU injection: 5-HT1A KO mice, chronic treatment, sacrificed 28 days after BrdU
# Method: Knockout and wild-type 129/SvEv age-matched adult male mice (12-20 weeks) derived from heterozygote crossings (Phillips et al., 1999) were used in all experiments that included 5-HT1A knockout mice. […] Mice were housed 4-5 per cage in a 12-h (06:00-18:00) light-dark colony room at 22° C. with freely available food and water.
# To assess the effect of antidepressant or X-irradiation treatments on the number of BrdU-positive cells, mice were administered BrdU (4×75 mg/kg i.p., dissolved in saline, every 2 hr; Roche Diagnostic, Indianapolis, Ind.) and sacrificed 24 hr after the last BrdU injection (FIG. 2A, 3B, 5C-D). To determine cell survival and phenotype after the various antidepressant treatments, fluoxetine, imipramine and vehicle-treated mice were allowed to survive for 28 days after the last BrdU injection (FIG. 2C-D, 3C). After deep anesthesia with a mixture of ketamine/xylazine (100 mg/kg and 7 mg/kg respectively),, mice were transcardially perfused (cold saline for 2 min, followed by 4% cold paraformaldehyde/0.1 M phosphate buffer for 5 min) and brains were collected for immunohistochemistry. All brains were post-fixed overnight in 4% paraformaldehyde at 4° C., then cryoprotected in 30% sucrose and stored at 4° C. Serial sections of the brains were cut (35 μm sections) through the entire hippocampus (plates 41-61; Franklin and Paxinos, 1997) on a cryostat and stored in PBS with 0.1% NaN3. For DAB staining, sections were slide-mounted and boiled in citric acid, pH 6.0, for 5 min, rinsed with PBS, and treated with 0.01% trypsin in Tris/CaC12 for 10 min. Brain sections were incubated for 30 min with 2N HCl and blocked with 5% NGS (Jackson ImmunoResearch, West Grove, Pa.). Sections were then incubated over night at room temperature with anti-mouse BrdU (1:100; Becton-Dickinson). After washing with PBS, sections were incubated for 1 hr with secondary antibody (1:200 biotinylated goat anti-mouse; Sigma-Aldrich, St. Louis, Mo.) followed by amplification with an avidin-biotin complex (Vector Laboratories). The staining was visualized with DAB (Sigma-Aldrich, St. Louis, Mo.). For fluorescent double-labeling, the DNA-denaturation procedure consisted of the following steps: 2 hr incubation in 50% formamide-2×SSC at 65° C., 5 min rinse in 2×SSC, 30 min incubation in 2N HCl at 37° C., and 10 min rinse in 0.1 M boric acid, pH 8.5. Sections were then incubated in TBS-0.1% Triton X-100 (Tx)-5% normal donkey serum (NDS) for 30 min, followed by anti-rat BrdU primary antibody (1:100; Accurate Westbury, N.Y. or Serotec, Oxford, UK) in TBS/NDS/Tx for 24 hrs at 4° C. in combination with either a mouse monoclonal antibody to NeuN (1:500; Chemicon, Temecula, Calif.) or a rabbit polyclonal antibody to GFAP (1:800; DAKO, Carpinteria, Calif.). The fluorescent secondary antibodies used were biotin-conjugated donkey anti-rat (1:200) plus streptavidin Cy2 (1:200), donkey anti-mouse. Cy3 (1:500), or donkey anti-rabbit Cy3 (1:500) (Jackson ImmunoResearch, West Grove, Pa.). Fluorescent images were taken with a Bio-Rad MRC 1000 confocal laser scanning system coupled to a Zeiss Axiovert 100 inverted microscope. For each image acquisition, a Kalman average of five frames was used. For quantification of BrdU/NeuN or BrdU/GFAP double-labeled cells, at least 50 BrdU-positive cells per animal were analyzed using Z-plane sectioning (1 μm steps).
# In this set of experiments, wild type and 5-HT1A receptor KO mice were injected with BrdU following 27 days of treatment with fluoxetine, imipramine, or vehicle. To assess the effect of AD treatment on cell proliferation, one group of mice was sacrificed 24 hours after BrdU injection and sections containing the dentate gyrus were analyzed by immunohistochemistry.
# [4] = mouse, in vivo, po
# Method: Fluoxetine (Eli Lilly, Indianapolis, Ind.), Imipramine (Sigma-Aldrich, St. Louis, Mo.), Desipramine (Sigma-Aldrich, St. Louis, Mo.) and Haloperidol (Sigma-Aldrich, St. Louis, Mo.) were dissolved in tap water at a concentration of 80, 160, 160, and 8 mg/L, respectively. These concentration were established based on the average drinking amount and average weight of the mice used in the study to achieve a final dose of 10 (fluoxetine), 20 (imipramine and desipramine) and 1 (haloperidol) mg/kg/day. […] Vehicle animals received tap water. 8-hydroxy-2-(di-n-propylamino) tetralin (8-OH-DPAT, Sigma-Aldrich, St. Louis, Mo.) was dissolved in sterile saline (0.9% NaCl) at a concentration of 4.5 mg/ml, and delivered through Alzet osmotic mini-pumps (model 2004, Alzet, Cupertino, Calif.) implanted subcutaneously 28 days prior to behavioral testing. The final average dose delivered was 1 mg/kg/day. Sham mice were implanted with mini-pumps containing sterile saline.
# BALB/c mice = test: Chronic unpredictable stress paradigm (CUS); assay type: in vivo, mouse; conditions: for state of the coat (fur) in CUS: fluoxetine 10 mg/kg/day i.p. from week 3, end of fifth week; for weight loss induced by stress in CUS / grooming latency in CUS: fluoxetine 10 mg/kg/day i.p.; for weight loss induced by stress in CUS: data not shown; for grooming latency in CUS: sixth week, after sucrose solution
# Method: The stress regimen used is a variant of the chronic mild stress procedures described by Willner et al. (Willner et al., 1992). Mice were subjected to various and repeated unpredictable stressors for a period of five weeks (Griebel et al., 2002). The different stressors used were: alterations of the bedding (repeated sawdust changing, removal of sawdust, damp sawdust, substitution of sawdust with 37° C. water); cage tilting (45°); predator sounds (15 min.); cage shift (mice were positioned in the empty cage of another male); light to dark or dark to light shifts (four light/dark successions of 30 min every 24 hours); reversal of the light/dark cycle. The fluoxetine treatment (10 mg/kg/day, i.p.) started at the beginning of the third week. The state of the coat was assessed at the end of the stress regimen (end of fifth week). The total score resulted from the sum of the score of seven different body parts: head, neck, dorsal coat, ventral coat, tail, forepaws and the hindpaws. A score of 0 was given for a well-groomed coat and 1 for a spoiled coat (see Griebel, 2002). The grooming latency was assessed at the end of the sixth week. This test consisted in squirting 200 μl of a 10% sucrose solution on the mouse's snout. The latency to start grooming was then recorded.
# The CUS protocol consists of the sequential application of a number of stressors, presented in a varied and unpredictable manner during 5 weeks. The continued application of these stressors produces a deterioration in the state of the coat, an impaired grooming response, and weight loss (Griebel et al., 2002; Willner et al., 1992). ADs such as fluoxetine can reverse these stress-induced effects after chronic, but not acute, administration (Griebel et al., 2002; Willner et al., 1992).
# Sham and irradiated mice were subjected to five weeks of CUS, beginning two weeks after the final X-ray dose, and half of the animals in each group were administered fluoxetine (10 mg/kg/day, i.p.) from weeks 3-6. The state of each animal's fur was assessed at the end of the stress period, and assigned a score based on observations from several body regions (see methods). Fluoxetine treatment was continued for one more week, after which we measured the latency to begin grooming following application of a sucrose solution to the head of each animal.
# [5] = system: dentate gyrus (DG) of the rat hippocampus; conditions: Malberg et al., 2000; cited from earlier work
# [6] = 28 days via drinking water, fluoxetine 10, imipramine 20, desipramine 20, haloperidol 1 mg/kg/day, wild-type mice, vs vehicle
# [7] = 28 days via drinking water, 5-HT1A knockout (−/−) mice, vs vehicle
# [8] = 5-day treatment via drinking water, vs vehicle
# [9] = 28 days, X-irradiated mice (3 x 5 Gy to hippocampus), vs vehicle
# [10] = 28 days, sham (non-irradiated) mice, vs vehicle
smiles,measurement,setting,value
CCCN(CCC)C1CCc2cccc(O)c2C1 (stereo not drawn) [8-OH-DPAT],latency to feed in NSF,"129/SvEv mice; 28 days, subcutaneous osmotic mini pumps, 1 mg/kg/day, wild type (+/+), vs sham, 1 mg/kg/day",significantly decreased the latency to feed; also recorded: significant decrease in the latency to feed
same,latency to feed in NSF,"[1]; 28 days, subcutaneous osmotic mini pumps, 1 mg/kg/day, 5-HT1A knockout (−/−), vs sham, 1 mg/kg/day",ineffective
same,BrdU-labeled cells in the SGZ (cell proliferation),[2],caused an increase in cell proliferation
same,BrdU-labeled cells in the SGZ (cell proliferation),[2]; listed as DPAT,DPAT-induced increases in BrdU-labeled cells
same,BrdU-labeled cells in the SGZ (cell proliferation),[3]; 5-HT1A KO (−/−) mice,not observed
same,BrdU-labeled cells in the SGZ (cell proliferation),"[3]; 5-HT1A KO (−/−) mice, listed as DPAT",not −/− mice
"CNCCCN1c2ccccc2CCc2ccccc21 [desipramine, Desipramine]",latency to feed in NSF,129/SvEv mice; [6],significant decreases in the latency to feed; also recorded: significantly decreased the latency to feed
same,latency to feed in NSF,[1]; [7],still responsive; also recorded: effective
same,time by which steady serum levels had been achieved,[4]; 129/SvEv,≤ 5 days
"CNCCC(Oc1ccc(C(F)(F)F)cc1)c1ccccc1 (stereo not drawn) [fluoxetine, Fluoxetine]",latency to feed in NSF,129/SvEv mice; [8],no effect
same,latency to feed in NSF,129/SvEv mice; [6],significant decreases in the latency to feed
same,latency to feed in NSF,"129/SvEv mice; 28 days via drinking water, fluoxetine 10, imipramine 20, desipramine 20, haloperidol 1 mg/kg/day, wild-type mice, vs vehicle, listed as Fluoxetine",significantly decreased the latency to feed
same,latency to feed in NSF,129/SvEv mice; [9],no such anxiolytic-like effect
same,latency to feed in NSF,129/SvEv mice; [10],significant reduction in the latency to feed
same,latency to feed in NSF,[1]; [7],insensitive
same,latency to feed in NSF,"[1]; 28 days via drinking water, 5-HT1A knockout (−/−) mice, vs vehicle, listed as Fluoxetine",only imipramine and desipramine were effective
same,cell proliferation (BrdU),"[2]; chronic fluoxetine, X-irradiated animals",no effect
same,cell proliferation (BrdU) in the SGZ,"[2]; chronic fluoxetine, non-irradiated mice",increased cell proliferation
same,cell proliferation (BrdU) in the SVZ,"[2]; chronic fluoxetine, subventricular zone",no effect
same,number of BrdU-positive cells in the DG,"[2]; fluoxetine 5 days, sacrificed 24 hours after BrdU, vs vehicle",No significant effect
same,increase in BrdU-labeled cells in the dentate gyrus,"[2]; wild type (+/+) mice, 27 days (4 weeks) treatment, sacrificed 24 hours after BrdU, vs vehicle",two-fold increase; also recorded: effective only in +/+ mice
same,BrdU-positive cells surviving 28 days after BrdU injection,[2]; vs vehicle,had an effect in WT
same,state of the coat (fur) in CUS,BALB/c mice; X-irradiated mice,absent; also recorded: Irradiation prevented the improvement of the state of the coat
same,state of the coat (fur) in CUS,BALB/c mice; sham mice,significantly improved the state of the fur; also recorded: significant differences between the fluoxetine-treated sham group and all the others
same,weight loss induced by stress in CUS,BALB/c mice; X-irradiated mice,irradiation blocked this effect
same,grooming latency in CUS,BALB/c mice; X-irradiated mice,X-irradiation blocked this effect
same,weight loss induced by stress in CUS,BALB/c mice; sham mice,trend to reverse the weight loss
same,grooming latency in CUS,BALB/c mice; sham mice,decreased; also recorded: decrease in the latency to groom
same,time by which steady serum levels had been achieved,[4]; 129/SvEv,≤ 5 days
same,neurogenesis in the dentate gyrus,[5],increase neurogenesis
same,increase in BrdU-labeled cells in the dentate gyrus,"[3]; 5-HT1A KO (−/−) mice, 27 days (4 weeks) treatment, sacrificed 24 hours after BrdU, vs vehicle",no effect; also recorded: effective only in +/+ mice
same,BrdU-positive cells surviving 28 days after BrdU injection,[3]; vs vehicle,not in KO
"O=C(CCCN1CCC(O)(c2ccc(Cl)cc2)CC1)c1ccc(F)cc1 [haloperidol, Haloperidol]",latency to feed in NSF,"129/SvEv mice; 28 days via drinking water, fluoxetine 10, imipramine 20, desipramine 20, haloperidol 1 mg/kg/day, wild-type mice, vs vehicle, listed as Haloperidol",ineffective
"CN(C)CCCN1c2ccccc2CCc2ccccc21 [imipramine, Imipramine]",latency to feed in NSF,129/SvEv mice; [8],no effect
same,latency to feed in NSF,129/SvEv mice; [6],significant decreases in the latency to feed; also recorded: significantly decreased the latency to feed
same,latency to feed in NSF,129/SvEv mice; [9],no such anxiolytic-like effect
same,latency to feed in NSF,129/SvEv mice; [10],significant reduction in the latency to feed
same,latency to feed in NSF,[1]; [7],still responsive; also recorded: effective
same,BrdU-positive cells surviving 28 days after BrdU injection,[2]; vs vehicle,effective in both genotypes
same,time by which steady serum levels had been achieved,[4]; 129/SvEv,≤ 5 days
same,BrdU-positive cells surviving 28 days after BrdU injection,[3]; vs vehicle,effective in both genotypes
NCCC(Oc1ccc(C(F)(F)F)cc1)c1ccccc1 (stereo not drawn) [nor- fluoxetine],time by which steady serum levels had been achieved,[4],≤ 5 days
